Assay results reported in ChEMBL document CHEMBL3997790, “The oxidative induction of DNA lesions in cancer cells by 5-thio-d-glucose and 6-thio-d-fructopyranose and their genotoxic effects. Part 3” (Bioorg Med Chem Lett, 2017).
The source made the active and inactive calls. The rule behind the calls is not given here.

Columns and labels:
HeLa [1] = experiment: Geno-toxicity in human HeLa cells assessed as induction of DNA damage at 0.1 mM at 4 degC by alkaline comet assay; format: functional, cell-based
HeLa [2] = experiment: Geno-toxicity in human HeLa cells assessed as induction of DNA damage by measuring double stranded DNA breaks at 0.02 to 0.5 mM after 1 hr by neutral comet assay; format: functional, cell-based
HeLa [3] = experiment: Geno-toxicity in human HeLa cells assessed as induction of DNA damage at pH 12.1 after 1 hr by comet assay; format: functional, cell-based
HeLa [4] = experiment: Induction of DNA damage in human HeLa cells assessed as increase in oxidative DNA lesions by measuring oxidized pyrimidines at 0.1 mM preincubated for 1 hr followed by endonuclease3 addition measured after 30 mins by alkaline comet assay; format: functional, cell-based
HeLa [5] = experiment: Induction of DNA damage in human HeLa cells at 0.1 mM in presence of antioxidant epikatehin after 1 hr by alkaline comet assay; format: functional, cell-based
[6] = tested on: Escherichia coli DH5[alpha]; experiment: Induction of DNA damage in Escherichia coli DH5alpha supercoiled pUC19 DNA assessed as increase in open circular forms at 0.1 to 1 mM by ethidium bromide staining based agarose gel electrophoresis
HeLa [7] = experiment: Geno-toxicity in human HeLa cells assessed as induction of DNA damage at 0.6 mM in presence of 5 mM glucose after 1 hr by alkaline comet assay; format: functional, cell-based
HeLa [8] = experiment: Geno-toxicity in human HeLa cells assessed as induction of DNA damage after 1 hr by alkaline comet assay; format: functional, cell-based
HeLa [9] = experiment: Induction of apoptosis in human HeLa cells at 0.5 mM after 4 hrs by Annexin-V-FITC/PI staining based flow cytometry; format: functional, cell-based
HeLa [10] = experiment: Induction of DNA damage in human HeLa cells assessed as increase in oxidative DNA lesions by measuring oxidized purines at 0.1 mM preincubated for 1 hr followed by human 8-oxoguanine DNA N-glycosylase1 addition measured after 30 mins by alkaline comet assay; format: functional, cell-based
[11] = tested on: Escherichia coli DH5[alpha]; experiment: Induction of DNA damage in Escherichia coli DH5alpha supercoiled pUC19 DNA assessed as increase in linear DNA forms at 0.1 to 1 mM by ethidium bromide staining based agarose gel electrophoresis
HeLa [12] = experiment: Induction of mitochondrial membrane depolarization in human HeLa cells at 0.5 mM by JC-1 staining based flow cytometry; format: functional, cell-based
HeLa [13] = experiment: Induction of oxidative DNA damage in human HeLa cells at 0.05 to 0.5 mM in presence of PBN spin trap after 1 hr by alkaline comet assay; format: functional, cell-based
HeLa [14] = experiment: Induction of DNA damage in human HeLa cells assessed as increase in oxidative DNA lesions by measuring oxidized purines at 0.1 mM preincubated for 1 hr followed by formamidopyrimidine DNA glycosylase addition measured after 30 mins by alkaline comet assay; format: functional, cell-based
HeLa [15] = experiment: Geno-toxicity in human HeLa cells assessed as induction of DNA damage at 0.1 mM at 37 degC by alkaline comet assay; format: functional, cell-based
HeLa [16] = experiment: Cytotoxicity against human HeLa cells assessed as decrease in cell viability at 0.6 mM in presence of 5 mM glucose after 14 hrs by WST-8 based CCK-8 assay; format: functional
HeLa [17] = experiment: Down regulation of NCOA7 mRNA expression in human HeLa cells at 0.5 mM after 1 hr by qRT-PCR method; format: functional, cell-based
[18] = tested on: Escherichia coli DH5[alpha]; experiment: Induction of DNA damage in Escherichia coli DH5alpha supercoiled pUC19 DNA assessed as decrease in covalently closed circular DNA forms at 0.1 to 1 mM by ethidium bromide staining based agarose gel electrophoresis
HeLa [19] = experiment: Induction of DNA damage in human HeLa cells at 0.1 mM in presence of antioxidant vitamin E after 1 hr by alkaline comet assay; format: functional, cell-based
HeLa [20] = experiment: Upregulation of FHL2 mRNA expression in human HeLa cells at 0.5 mM after 1 hr by qRT-PCR method; format: functional, cell-based
HeLa [21] = experiment: Induction of ROS production in human HeLa cells at 0.1 mM after 24 hrs by H2DCFDA probe based fluorescence assay; format: functional, cell-based
HeLa [22] = experiment: Upregulation of NOX5 mRNA expression in human HeLa cells at 0.5 mM after 1 hr by qRT-PCR method; format: functional, cell-based
HeLa [23] = experiment: Geno-toxicity in human HeLa cells assessed as induction of DNA damage at 0.1 mM by alkaline comet assay; format: functional, cell-based; conditions: TDE = time-dependent effect
HeLa [24] = experiment: Geno-toxicity in human HeLa cells assessed as induction of DNA damage at 0.5 mM in presence of 5 mM glucose after 1 hr by alkaline comet assay; format: functional, cell-based
HeLa [25] = experiment: Geno-toxicity in human HeLa cells assessed as induction of DNA damage at 0.2 mM by alkaline comet assay; format: functional, cell-based; conditions: TDE = time-dependent effect
HeLa [26] = experiment: Cytotoxicity against human HeLa cells assessed as decrease in cell viability at 0.5 mM in presence of 5 mM glucose after 14 hrs by WST-8 based CCK-8 assay; format: functional
HeLa [27] = experiment: Geno-toxicity in human HeLa cells assessed as induction of DNA damage by measuring double stranded DNA breaks at 0.19 to 0.76 mM after 1 hr by neutral comet assay; format: functional, cell-based
HeLa [28] = experiment: Geno-toxicity in human HeLa cells assessed as induction of DNA damage at 0.2 mM at 4 degC by alkaline comet assay; format: functional, cell-based
HeLa [29] = experiment: Induction of ROS production in human HeLa cells at 0.2 mM after 24 hrs by H2DCFDA probe based fluorescence assay; format: functional, cell-based
HeLa [30] = experiment: Geno-toxicity in human HeLa cells assessed as induction of DNA damage at 0.2 mM at 37 degC by alkaline comet assay; format: functional, cell-based
HeLa [31] = experiment: Induction of oxidative DNA damage in human HeLa cells at 0.19 to 0.76 mM in presence of PBN spin trap after 1 hr by alkaline comet assay; format: functional, cell-based

Structure (SMILES) | Activity (HeLa [3]) | Activity (HeLa [4]) | Activity (HeLa [5]) | Activity [6] | Activity (HeLa [8]) | Activity (HeLa [9]) | Activity (HeLa [10]) | Activity [11] | Activity (HeLa [12]) | Activity (HeLa [14]) | Activity (HeLa [17]) | Activity [18] | Activity (HeLa [19]) | Activity (HeLa [20]) | Activity (HeLa [22]) | other results
OC[C@H]1SC(O)[C@H](O)[C@@H](O)[C@@H]1O (stereo partly specified) | Dose-dependent effect | Active | inactive | inactive | Dose-dependent effect | inactive | Active | inactive | inactive | Active | Active | inactive | inactive | Active | Active | Activity (HeLa [1]): Active; Activity (HeLa [2]): inactive; Activity (HeLa [7]): Active; Activity (HeLa [13]): inactive; Activity (HeLa [15]): inactive; Activity (HeLa [16]): Active; Activity (HeLa [21]): Active; Activity (HeLa [23]): Tde
OC[C@@]1(O)SC[C@@H](O)[C@@H](O)[C@@H]1O | Dose-dependent effect | Active | inactive | inactive | Dose-dependent effect | inactive | Active | inactive | inactive | Active | Active | inactive | inactive | Active | Active | Activity (HeLa [24]): Active; Activity (HeLa [25]): Tde; Activity (HeLa [26]): Active; Activity (HeLa [27]): inactive; Activity (HeLa [28]): Active; Activity (HeLa [29]): Active; Activity (HeLa [30]): inactive; Activity (HeLa [31]): inactive
